We go through 22 compounds from patent publication US7326732B2, “EP2 receptor agonists” (Pharmagene Laboratories Limited, priority 2004, dated 2008).

One experiment has as its target T1, human EP2 receptor (Homo sapiens, UniProt P43116).
T1 construct: expressed in transfected cells
Description: Binding ability to human EP receptors ([3H]PGE2 displacement), EP2. The note with it: membranes expressing human EP2; [3H]PGE2 3 nM; Cheng-Prusoff; read-out: pKi (M) EP2 (converted). Put shortly:
(§1)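 Membranes from cells stably expressing human EP2, EP3 or EP4 incubated to equilibrium with [3H]PGE2 and compound at 0.1 to 10 000 nM. Non-specific binding defined with 10 uM PGE2; bound label separated by vacuum filtration and quantified by scintillation counting.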

A further experiment addresses T2, human EP4 receptor (Homo sapiens, UniProt P35408).
T2 construct: expressed in transfected cells
The experiment can be described thus: Binding ability to human EP receptors ([3H]PGE2 displacement), EP4. The conditions noted are these: membranes expressing human EP4; [3H]PGE2 1 nM; Cheng-Prusoff; read-out: pKi (M) EP4 (converted). The method, boiled down:
as §1

Another experiment has as its target T3, human EP3 receptor (Homo sapiens, UniProt P43115).
T3 construct: expressed in transfected cells
T3 sequence (P43115 1-390): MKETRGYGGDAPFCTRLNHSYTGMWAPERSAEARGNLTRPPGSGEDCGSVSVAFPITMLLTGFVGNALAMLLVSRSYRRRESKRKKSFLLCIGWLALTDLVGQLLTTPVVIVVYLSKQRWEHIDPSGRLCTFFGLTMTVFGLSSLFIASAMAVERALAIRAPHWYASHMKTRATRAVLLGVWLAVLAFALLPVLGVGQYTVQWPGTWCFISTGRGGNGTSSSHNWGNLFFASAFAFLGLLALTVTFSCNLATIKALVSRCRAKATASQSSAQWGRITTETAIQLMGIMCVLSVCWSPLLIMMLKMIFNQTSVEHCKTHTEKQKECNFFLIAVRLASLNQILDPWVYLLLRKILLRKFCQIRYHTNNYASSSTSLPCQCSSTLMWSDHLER
The experiment can be described thus: Binding ability to human EP receptors ([3H]PGE2 displacement), EP3. The conditions noted are these: membranes expressing human EP3; [3H]PGE2 2.5 nM; Cheng-Prusoff; read-out: pKi (M) EP3 (converted). The method, boiled down:
as §1

For experiment [1], the target named is T4, human EP2 prostanoid receptors (Homo sapiens, UniProt P43116).
T4 construct: expressed in transfected cells; host or cells: HEK-293
The experiment can be described thus: Agonist activity at recombinant human EP2 prostanoid receptors (cAMP in HEK-293 clones). The note with it: for EC50: HEK-293 stably transfected with human EP2, cAMP accumulation, read-out: pEC50 EP2 (converted); for activity (EP2 part): functional classification at EP2. Format: cell-based.

T1 sequence (P43116 whole entry): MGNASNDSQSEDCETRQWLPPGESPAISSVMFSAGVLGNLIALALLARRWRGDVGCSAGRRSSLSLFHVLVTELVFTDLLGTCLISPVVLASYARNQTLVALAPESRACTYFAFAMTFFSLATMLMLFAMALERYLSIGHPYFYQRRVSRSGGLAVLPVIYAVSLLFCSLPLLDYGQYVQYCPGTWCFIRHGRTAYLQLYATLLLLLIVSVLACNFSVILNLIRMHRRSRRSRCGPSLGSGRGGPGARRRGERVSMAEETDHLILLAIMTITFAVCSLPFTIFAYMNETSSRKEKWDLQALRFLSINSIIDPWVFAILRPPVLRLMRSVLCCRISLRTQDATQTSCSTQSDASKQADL
T4 sequence (P43116 whole entry): as above
T2 sequence (P35408 whole entry): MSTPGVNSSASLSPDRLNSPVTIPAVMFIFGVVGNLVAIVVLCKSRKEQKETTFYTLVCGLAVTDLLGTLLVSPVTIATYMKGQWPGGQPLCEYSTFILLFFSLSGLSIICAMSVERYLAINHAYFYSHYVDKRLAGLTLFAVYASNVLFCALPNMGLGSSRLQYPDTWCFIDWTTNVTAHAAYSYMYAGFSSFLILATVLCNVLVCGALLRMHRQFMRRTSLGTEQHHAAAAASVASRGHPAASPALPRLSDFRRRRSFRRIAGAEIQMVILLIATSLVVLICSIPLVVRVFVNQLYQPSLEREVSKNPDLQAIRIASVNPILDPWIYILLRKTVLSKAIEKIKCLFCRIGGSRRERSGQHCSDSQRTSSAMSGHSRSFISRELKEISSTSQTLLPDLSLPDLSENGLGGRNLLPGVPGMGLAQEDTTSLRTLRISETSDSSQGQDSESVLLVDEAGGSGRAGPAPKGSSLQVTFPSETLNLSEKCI

For `O=C(Nc1cccc(Cc2nnn[nH]2)c1)c1cccc(-c2ccccc2)n1` [Compound 92, 6-Phenyl-pyridine-2-carboxylic acid [3-(1H-tetrazol-5-ylmethyl)-phenyl]-amide], the Ki was less than 1e-06 M at human EP2 receptor, greater than 1e-05 M at human EP4 receptor and greater than 1e-05 M on human EP3 receptor. Moreover, the EC50 in experiment [1] was less than 0.1 µM. Also, the “activity (EP2 part)” value in experiment [1] is “EP2 Agonist”.

Take `O=C(O)/C=C/c1cccc(NC(=O)c2cc(-c3ccccc3)ccc2F)c1` [Compound 107, 3-{3-[(4-Fluoro-biphenyl-3-carbonyl)-amino]-phenyl}-acrylic acid]: the Ki at human EP2 receptor is less than 1e-07 M; on human EP4 receptor, greater than 1e-05 M; at human EP3 receptor, greater than 1e-05 M. In addition, the EC50 in experiment [1] was less than 0.1 µM. Also, the “activity (EP2 part)” value in experiment [1] is on record as “EP2 Agonist”.

Consider `CN(C)c1ccc(-c2ccc(C(=O)Nc3cccc(CC(=O)O)c3)o2)cc1` [Compound 14, (3-[(5-(4-Dimethylamino-phenyl)-furan-2-carbonyl)-amino]-phenyl)-acetic acid], for which the values for the Ki at human EP2 receptor, on human EP4 receptor and on human EP3 receptor were less than 1e-06 M, greater than 1e-05 M and greater than 1e-05 M, respectively. The EC50 in experiment [1] was less than 10 µM. The “activity (EP2 part)” value in experiment [1] is listed as “EP2 agonist”.

For the compound `O=C(O)/C=C/c1cccc(NC(=O)c2ccc(-c3ccc4c(c3)OCO4)o2)c1` [Compound 101, 3-{3-[(5-Benzo[1,3]dioxol-5-yl-furan-2-carbonyl)-amino]-phenyl}-acrylic acid], the results for the Ki on human EP2 receptor, on human EP4 receptor and at human EP3 receptor were less than 1e-07 M, greater than 1e-05 M and greater than 1e-05 M, respectively. Moreover, in experiment [1], the EC50 is less than 0.1 µM. Further, the “activity (EP2 part)” value in experiment [1] is reported as “EP2 Agonist”.

For `O=C(Nc1cccc(OCc2nnn[nH]2)c1)c1ccc(-c2ccccc2)o1` [Compound 173, 5-Phenyl-furan-2-carboxylic acid [3-(1H-tetrazol-5-ylmethoxy)-phenyl]-amide], the Ki on human EP2 receptor was less than 1e-06 M; at human EP4 receptor, greater than 1e-05 M; at human EP3 receptor, greater than 1e-05 M. In addition, the EC50 in experiment [1] was less than 0.1 µM. For the same compound, in experiment [1], the “activity (EP2 part)” value is “EP2 Agonist”.

`O=C(O)Cc1cccc(NC(=O)c2cccc(-c3ccc(F)cc3)n2)c1` [Compound 153, (3-{[6-(4-Fluoro-phenyl)-pyridine-2-carbonyl]-amino}-phenyl)-acetic acid]: the Ki on human EP2 receptor is less than 1e-07 M; at human EP4 receptor it was greater than 1e-05 M; on human EP3 receptor, greater than 1e-05 M. Also, in experiment [1], the EC50 is less than 0.1 µM. The “activity (EP2 part)” value in experiment [1] is recorded as “EP2 Agonist”.

With `O=C(O)Cc1cccc(NC(=O)c2cc(-c3ccccc3)ccc2Cl)c1` [Compound 44, {3-[(4-Chloro-biphenyl-3-carbonyl)-amino]-phenyl}-acetic acid], the results for the Ki on human EP2 receptor, at human EP4 receptor and at human EP3 receptor were less than 1e-06 M, greater than 1e-05 M and greater than 1e-05 M, respectively. Further, the EC50 in experiment [1] was less than 0.1 µM. Moreover, the “activity (EP2 part)” value in experiment [1] is “EP2 agonist”.

As for `O=C(Nc1cccc(Cc2nnn[nH]2)c1)c1ccc(-c2cccc(Cl)c2)o1` [Compound 81, 5-(3-Chloro-phenyl)-furan-2-carboxylic acid [3-(1H-tetrazol-5-ylmethyl)-phenyl]-amide], the Ki on human EP2 receptor is less than 1e-07 M; at human EP4 receptor, greater than 1e-05 M; on human EP3 receptor, greater than 1e-05 M. The EC50 in experiment [1] was less than 0.1 µM. Moreover, the “activity (EP2 part)” value in experiment [1] is given as “EP2 Agonist”.

`O=C(O)Cc1cccc(NC(=O)c2ccc(-c3ccc(Cl)cc3)o2)c1` [Compound 40, (3-{[5-(4-Chloro-phenyl)-furan-2-carbonyl]-amino}-phenyl)-acetic acid]: the results for the Ki at human EP2 receptor, on human EP4 receptor and at human EP3 receptor were less than 1e-06 M, greater than 1e-05 M and greater than 1e-05 M, respectively. Further, the EC50 in experiment [1] is less than 0.1 µM. Further, the “activity (EP2 part)” value in experiment [1] is “EP2 agonist”.

With `O=C(O)/C=C/c1cccc(NC(=O)c2ccc(-c3ccc(Cl)cc3)o2)c1` [Compound 146, 3-(3-{[5-(4-Chloro-phenyl)-furan-2-carbonyl]-amino}-phenyl)-acrylic acid], the Ki on human EP2 receptor is less than 1e-07 M; at human EP4 receptor, greater than 1e-05 M; on human EP3 receptor, greater than 1e-05 M. In experiment [1], the EC50 is less than 0.1 µM. The “activity (EP2 part)” value in experiment [1] is on record as “EP2 Agonist”.

For the compound `O=C(O)Cc1cccc(C(=O)Nc2cccc(-c3ccccc3)c2)c1` [Compound 117, [3-(Biphenyl-3-ylcarbamoyl)-phenyl]-acetic acid], the Ki at human EP2 receptor was less than 1e-06 M; on human EP4 receptor, greater than 1e-05 M; on human EP3 receptor it was greater than 1e-05 M. Further, the EC50 in experiment [1] is less than 10 µM. In addition, the “activity (EP2 part)” value in experiment [1] is given as “EP2 Agonist”.

With `O=C(O)CCc1cccc(NC(=O)c2cccc(-c3ccccc3)n2)c1` [Compound 164, 3-{3-[(6-Phenyl-pyridine-2-carbonyl)-amino]-phenyl}-propionic acid], the Ki was less than 1e-06 M at human EP2 receptor, greater than 1e-05 M on human EP4 receptor and greater than 1e-05 M at human EP3 receptor. Moreover, the EC50 in experiment [1] was less than 0.1 µM. In experiment [1], the “activity (EP2 part)” value was “EP2 Agonist”.

As for `O=C(O)/C=C/c1cccc(NC(=O)c2csc(-c3cccc(F)c3)n2)c1` [Compound 116, 3-(3-{[2-(3-Fluoro-phenyl)-thiazole-4-carbonyl]-amino}-phenyl)-acrylic acid], the values for the Ki at human EP2 receptor, on human EP4 receptor and at human EP3 receptor were less than 1e-07 M, greater than 1e-05 M and greater than 1e-05 M, respectively. In addition, the EC50 in experiment [1] was less than 0.1 µM. Besides, in experiment [1], the “activity (EP2 part)” value is recorded as “EP2 Agonist”.

Regarding `O=C(O)COc1cccc(NC(=O)c2cc(-c3ccccc3)ccc2F)c1` [Compound 165], the Ki is less than 1e-07 M at human EP2 receptor, greater than 1e-05 M at human EP4 receptor and greater than 1e-05 M on human EP3 receptor. The EC50 in experiment [1] was less than 0.1 µM. Besides, in experiment [1], the “activity (EP2 part)” value was “EP2 Agonist”.

On to `O=C(Nc1cccc(CCO)c1)c1ccc(-c2ccccc2)o1` [Compound 74], for which the Ki at human EP2 receptor was less than 1e-05 M; on human EP4 receptor it was greater than 1e-05 M; on human EP3 receptor it was greater than 1e-05 M. In experiment [1], the EC50 was less than 10 µM.

For `COc1ccc(-c2ccc(C(=O)Nc3cccc(CC(=O)O)c3)o2)cc1` [Compound 12, (3-[(5-(4-Methoxy-phenyl)-furan-2-carbonyl)-amino]-phenyl)-acetic acid], the Ki is less than 1e-06 M on human EP2 receptor, greater than 1e-05 M at human EP4 receptor and greater than 1e-05 M on human EP3 receptor. Further, the EC50 in experiment [1] was less than 1 µM. For the same compound, the “activity (EP2 part)” value in experiment [1] is listed as “EP2 agonist”.

In the case of `O=C(O)COc1cccc(NC(=O)c2ccc(-c3cccc(F)c3)o2)c1` [Compound 168, (3-{[5-(3-Fluoro-phenyl)-furan-2-carbonyl]-amino}-phenoxy)-acetic acid], the Ki was less than 1e-07 M at human EP2 receptor, greater than 1e-05 M at human EP4 receptor and greater than 1e-05 M on human EP3 receptor. In experiment [1], the EC50 was less than 0.1 µM. Further, the “activity (EP2 part)” value in experiment [1] was “EP2 Agonist”.

In the case of `O=C(O)Cc1cccc(NC(=O)c2ccc(-c3cccc(Cl)c3)o2)c1` [Compound 39, (3-{[5-(3-Chloro-phenyl)-furan-2-carbonyl]-amino}-phenyl)-acetic acid], the Ki on human EP2 receptor was less than 1e-07 M; on human EP4 receptor, greater than 1e-05 M; at human EP3 receptor, greater than 1e-05 M. Also, the EC50 in experiment [1] was less than 0.1 µM. Also, the “activity (EP2 part)” value in experiment [1] is “EP2 agonist”.

In the case of `O=C(O)CCc1cccc(NC(=O)c2ccc(-c3ccccc3)o2)c1` [Compound 62, 3-{3-[(5-Phenyl-furan-2-carbonyl)-amino]-phenyl}-propionic acid], the Ki on human EP2 receptor is less than 1e-06 M; at human EP4 receptor it was greater than 1e-05 M; at human EP3 receptor it was greater than 1e-05 M. Also, in experiment [1], the EC50 was less than 0.1 µM. The “activity (EP2 part)” value in experiment [1] is on record as “EP2 agonist”.

Turning to `O=C(O)Cc1cccc(NC(=O)c2ccc(-c3ccccc3Cl)o2)c1` [Compound 30, (3-{[5-(2-Chloro-phenyl)-furan-2-carbonyl]-amino}-phenyl)-acetic acid], the Ki on human EP2 receptor is less than 1e-05 M; at human EP4 receptor, greater than 1e-05 M; on human EP3 receptor, greater than 1e-05 M. Also, the EC50 in experiment [1] is less than 1 µM. The “activity (EP2 part)” value in experiment [1] is reported as “EP2 Agonist”.

Turning to `O=C(O)COc1cccc(NC(=O)c2cc(-c3cccc(Cl)c3)ccc2F)c1` [Compound 140, {3-[(3′-Chloro-4-fluoro-biphenyl-3-carbonyl)-amino]-phenoxy}-acetic acid], the Ki at human EP2 receptor is less than 1e-07 M; on human EP4 receptor, greater than 1e-05 M; on human EP3 receptor, greater than 1e-05 M. Besides, the EC50 in experiment [1] was less than 0.1 µM. The “activity (EP2 part)” value in experiment [1] was “EP2 Agonist”.

Consider `O=C(O)Cc1cccc(NC(=O)c2ccc(-c3ccc(F)cc3)o2)c1` [Compound 42, (3-{[5-(4-Fluoro-phenyl)-furan-2-carbonyl]-amino}-phenyl)-acetic acid], for which the Ki is less than 1e-06 M on human EP2 receptor, greater than 1e-05 M on human EP4 receptor and greater than 1e-05 M on human EP3 receptor. Further, the EC50 in experiment [1] was less than 0.1 µM. Also, in experiment [1], the “activity (EP2 part)” value is listed as “EP2 agonist”.
